pIC50: −log10 of the molar value. ≈ marks a conversion by molar mass, not a printed value.
Tests used:
[1] = Antifungal activity against Penicillium notatum by agar streak dilution method; assay type: functional; conditions: Penicillium chrysogenum
[2] = system: Klebsiella pneumoniae; assay: Antibacterial activity against Klebsiella pneumoniae after 24 hrs by broth dilution method; assay type: functional
[3] = system: Bacillus subtilis; assay: Antibacterial activity against Bacillus subtilis after 24 hrs by broth dilution method; assay type: functional
[4] = Cytotoxicity against human HeLa cells assessed as inhibition of cell viability after 48 hrs by MTT assay; assay type: functional, cell-based
[5] = system: Staphylococcus aureus; assay: Antibacterial activity against Staphylococcus aureus after 24 hrs by broth dilution method; assay type: functional
[6] = Cytotoxicity against human A549 cells assessed as inhibition of cell viability after 48 hrs by MTT assay; assay type: functional, cell-based; conditions: A549, 48 h
[7] = system: Aspergillus niger; assay: Antifungal activity against Aspergillus niger by agar streak dilution method; assay type: functional
[8] = Cytotoxicity against HEK293 cells assessed as inhibition of cell viability after 48 hrs by MTT assay; assay type: toxicity, cell-based; conditions: human
[9] = system: Escherichia coli; assay: Antibacterial activity against Escherichia coli after 24 hrs by broth dilution method; assay type: functional
[10] = Cytotoxicity against human MCF7 cells assessed as inhibition of cell viability after 48 hrs by MTT assay; assay type: functional, cell-based; conditions: MCF7, 48 h

SMILES	MIC [1] [µg/mL]	MIC [2] [µg/mL]	MIC [3] [µg/mL]	pIC50 [4]	MIC [5] [µg/mL]	pIC50 [6]	MIC [7] [µg/mL]	IC50 at 48 h [8] [µM]	MIC [9] [µg/mL]	pIC50 [10]
O=c1c2ccccc2nc2n1-c1ccc(Br)cc1/C2=N/N=C1/C=C(O)c2ccccc21	6.25 (≈ 13.3 µM)	3.12 (≈ 6.66 µM)	1.56 (≈ 3.33 µM)	4.77	1.56 (≈ 3.33 µM)	4.69	3.12 (≈ 6.66 µM)	55.2	3.12 (≈ 6.66 µM)	4.80
CC(=O)N1CCN(c2ccc(OCC3COC(Cn4ccnc4)(c4ccc(Cl)cc4Cl)O3)cc2)CC1 (configuration not stated) [KETOCONAZOLE]	3.12 (≈ 5.88 µM)	–	–	–	–	–	3.12 (≈ 5.88 µM)	–	–	–
CCO/C(O)=C/C(C)=N/N=C1/c2cc(Br)ccc2-n2c1nc1ccccc1c2=O	3.12 (≈ 6.89 µM)	12.5 (≈ 27.6 µM)	3.12 (≈ 6.89 µM)	4.44	1.56 (≈ 3.45 µM)	4.40	6.25 (≈ 13.8 µM)	–	6.25 (≈ 13.8 µM)	4.44
COc1ccc2c(c1)/C(=N/N=C1/C=C(O)c3ccccc31)c1nc3ccccc3c(=O)n1-2	50 (≈ 119 µM)	12.5 (≈ 29.7 µM)	3.12 (≈ 7.43 µM)	4.21	1.56 (≈ 3.72 µM)	4.20	50 (≈ 119 µM)	–	6.25 (≈ 14.9 µM)	4.22
COc1ccc2c(c1)/C(=N/N=C(C)C=C(C)O)c1nc3ccccc3c(=O)n1-2	100 (≈ 267 µM)	50 (≈ 134 µM)	50 (≈ 134 µM)	4.31	12.5 (≈ 33.4 µM)	4.33	> 100	–	50 (≈ 134 µM)	4.32
CC1(C)CC(O)=C/C(=N/N=C2/c3ccccc3-n3c2nc2ccccc2c3=O)C1	100 (≈ 260 µM)	12.5 (≈ 32.5 µM)	50 (≈ 130 µM)	4.23	50 (≈ 130 µM)	4.18	100 (≈ 260 µM)	–	50 (≈ 130 µM)	4.16
O=c1c2ccccc2nc2n1-c1ccccc1/C2=N/N=C1/C=C(O)c2ccccc21	12.5 (≈ 32 µM)	1.56 (≈ 4 µM)	6.25 (≈ 16 µM)	4.31	3.12 (≈ 8 µM)	4.25	6.25 (≈ 16 µM)	–	12.5 (≈ 32 µM)	4.30
CC(C=C(O)c1ccccc1)=N/N=C1/c2ccccc2-n2c1nc1ccccc1c2=O	25 (≈ 61.5 µM)	> 100	> 100	4.60	> 100	4.75	25 (≈ 61.5 µM)	68.1	> 100	4.58
O=c1c2ccccc2nc2n1-c1ccc(Br)cc1/C2=N/N=C1/C=C(O)CCC1	6.25 (≈ 14.4 µM)	6.25 (≈ 14.4 µM)	3.12 (≈ 7.18 µM)	4.45	6.25 (≈ 14.4 µM)	4.38	6.25 (≈ 14.4 µM)	–	12.5 (≈ 28.7 µM)	4.36
COc1ccc2c(c1)/C(=N/N=C1/C=C(O)CCC1)c1nc3ccccc3c(=O)n1-2	12.5 (≈ 32.3 µM)	6.25 (≈ 16.2 µM)	6.25 (≈ 16.2 µM)	4.49	3.12 (≈ 8.09 µM)	4.44	100 (≈ 259 µM)	–	12.5 (≈ 32.3 µM)	4.49
N/N=C1/c2ccccc2-n2c1nc1ccccc1c2=O	> 100	50 (≈ 191 µM)	> 100	4.59	50 (≈ 191 µM)	4.54	50 (≈ 191 µM)	–	> 100	4.60
CC(O)=CC(C)=N/N=C1/c2cc(C)cc(C)c2-n2c1nc1ccccc1c2=O	100 (≈ 269 µM)	6.25 (≈ 16.8 µM)	12.5 (≈ 33.6 µM)	4.38	12.5 (≈ 33.6 µM)	4.33	100 (≈ 269 µM)	–	25 (≈ 67.1 µM)	4.35
C/C(O)=C/C(C)=N/N=C1/c2ccccc2-n2c1nc1ccccc1c2=O	> 100	12.5 (≈ 36.3 µM)	25 (≈ 72.6 µM)	4.35	25 (≈ 72.6 µM)	4.36	> 100	–	50 (≈ 145 µM)	4.38
CC1(C)CC(O)=C/C(=N/N=C2/c3cc(Br)ccc3-n3c2nc2ccccc2c3=O)C1	> 100	> 100	> 100	4.40	> 100	4.33	100 (≈ 216 µM)	–	> 100	4.40
CCO/C(O)=C/C(C)=N/N=C1/c2cc(OC)ccc2-n2c1nc1ccccc1c2=O	50 (≈ 124 µM)	3.12 (≈ 7.73 µM)	6.25 (≈ 15.5 µM)	4.23	6.25 (≈ 15.5 µM)	4.25	50 (≈ 124 µM)	–	12.5 (≈ 30.9 µM)	4.26
O=c1c2ccccc2nc2n1-c1ccccc1/C2=N/N=C1/C=C(O)CCC1	25 (≈ 70.1 µM)	12.5 (≈ 35.1 µM)	3.12 (≈ 8.77 µM)	4.62	6.25 (≈ 17.5 µM)	4.53	12.5 (≈ 35.1 µM)	–	6.25 (≈ 17.5 µM)	4.55
CN[C@@H]1[C@H](O[C@H]2[C@H](O[C@H]3[C@H](O)[C@@H](O)[C@H](N=C(N)N)[C@@H](O)[C@@H]3N=C(N)N)O[C@@H](C)[C@]2(O)C=O)O[C@@H](CO)[C@H](O)[C@H]1O [STREPTOMYCIN]	–	1.56 (≈ 2.69 µM)	3.12 (≈ 5.37 µM)	–	6.25 (≈ 10.7 µM)	–	–	–	6.25 (≈ 10.7 µM)	–
CCO/C(O)=C/C(C)=N/N=C1/c2ccccc2-n2c1nc1ccccc1c2=O	25 (≈ 66.8 µM)	12.5 (≈ 33.4 µM)	6.25 (≈ 16.7 µM)	4.37	6.25 (≈ 16.7 µM)	4.29	12.5 (≈ 33.4 µM)	–	12.5 (≈ 33.4 µM)	4.30
COc1ccc2c(c1)/C(=N/N=C1/C=C(O)CC(C)(C)C1)c1nc3ccccc3c(=O)n1-2	> 100	> 100	> 100	4.24	> 100	4.17	100 (≈ 241 µM)	–	> 100	4.16
COc1ccc2c(c1)/C(=N/N)c1nc3ccccc3c(=O)n1-2	50 (≈ 171 µM)	> 100	> 100	4.53	> 100	4.51	> 100	–	> 100	4.49
CC(O)=CC(C)=N/N=C1/c2cc(Br)ccc2-n2c1nc1ccccc1c2=O	> 100	> 100	50 (≈ 118 µM)	4.51	50 (≈ 118 µM)	4.51	> 100	–	50 (≈ 118 µM)	4.48
COc1ccc2c(c1)/C(=N/N=C(C)C=C(O)c1ccccc1)c1nc3ccccc3c(=O)n1-2	50 (≈ 115 µM)	> 100	> 100	4.47	> 100	4.53	25 (≈ 57.3 µM)	–	> 100	4.51
N/N=C1/c2cc(Br)ccc2-n2c1nc1ccccc1c2=O	50 (≈ 147 µM)	25 (≈ 73.3 µM)	50 (≈ 147 µM)	4.66	> 100	4.64	50 (≈ 147 µM)	–	> 100	4.63

— ChEMBL document CHEMBL3862025, “Novel substituted hydrazono indolo[2,1-b]quinazoline-6,12-dione analogues as cytostatic agents: Synthesis, crystal structure, biological evaluation and molecular docking studies” (Bioorg Med Chem Lett, 2016)
